Like-named read-outs stand apart in the source and are kept apart here. Where a SMILES comes first, the peptide text is derived from it. [ ]: non-standard residue; d: D form. Pro(trans-4-F) = O=C(O)[C@@H]1C[C@@H](F)CN1; Phg = N[C@H](C(=O)O)c1ccccc1; ΔPro = O=C(O)[C@@H]1C=CCN1; Pip = O=C(O)[C@@H]1CCCCN1; Thz = O=C(O)[C@@H]1CSCN1; Aze = O=C(O)[C@@H]1CCN1
Experiments:
mice fed a high-fat diet [1] = assay: Glucose tolerance test after 12 weeks of treatment on high-fat diet; format: in vivo; conditions: overnight fasted mice, 2 g/kg glucose i.p., after 12 weeks daily i.p. 5 mg/kg on high-fat diet
Procedure: (§1) All experiments were approved by the institutional Animal Care and Use Committee (Chengdu Medical College, China). All experiments were carried out in 10-week-old male mice maintained on the C57BL/6 background. All the animals were kept on a 12-h light/dark cycle with free access to food and water.
(§2) Animals (n = 90) were randomly assigned to one of the nine groups (Table 1). Animals were fed ad libitum with a high-fat diet (60% of caloric intake from fat (70% saturated fat), 20% from carbohydrates, and 20% from protein) before experiments and for another 12 weeks during the experiments. Food intake was measured manually on a daily basis. Eight groups of animals were treated with indicated peptides with a daily i.p. injection at 5 mg/kg and one group of animals were treated with vehicle.
After receiving 12 weeks of treatment as described above, glucose tolerance tests were performed in overnight fasted mice. Each mouse received a 2 g/kg glucose through i.p. Blood samples were obtained from the tail tip at 0, 30, 60, 90, and 120 min. Insulin concentrations were measured using mouse insulin Elisa kits (ChrystalChem) using mouse standards. Glucose levels were measured using a glucometer (Roche).

Cbl (RING) protein = target: T1, Cbl (RING) protein (Homo sapiens, UniProt P22681); assay: Fluorescence polarization (FP) assay, competition with FITC-βA-PFKPP-NH2 probe; format: binding; conditions: probe FITC-βA-PFKPP-NH2 100 nmol/L, Cbl (RING) protein 3 μmol/L, PBS pH 7.4
T1 construct: including the linker and RING domain (codon 358–457); GST (Glutathione S-Transferase); made in house
T1 sequence (P22681 358-457): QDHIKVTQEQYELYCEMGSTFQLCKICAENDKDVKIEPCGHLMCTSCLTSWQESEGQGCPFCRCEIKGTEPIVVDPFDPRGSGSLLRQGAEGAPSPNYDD
Procedure: Peptides and peptide mimetics were purchased from MitenChem (China) with a purity ≥ 98%. Concentrations values of reconstituted peptides were determined by amino acid analysis at the protein core facility (Chengdu Medical College). The recombinant Cbl protein was produced by the Chengdu Medical College Protein Core Facility and was described previously. The c-Cbl (RING) protein, including the linker and RING domain (codon 358–457), was tagged with Glutathione S-Transferase (GST) and purified with GSH-Sepharose (Shanghai Biopharma).
The FP assay was developed and validated previously. Briefly, fluorescein-labeled probe (FITC-βA-PFKPP-NH2, 100 nmol/L) and Cbl (RING) protein (3 μmol/L) were mixed and diluted to the final concentration using 0.01% Triton X-100 in PBS (pH = 7.4). Then, 19 μl of this master mix was loaded to each reaction well. The peptides or peptide mimetics were then loaded to the designated wells (1 μl, 10 μmol/L– 0.078 μmol/L, half-fold dilutions). The total fluorescence and polarization values were measured at an excitation wavelength of 485 nm and an emission wavelength of 538 nm using a ZS-2 plate reader. The data was fitted, and the ΔmP, Kd, and Ki values were estimated, using SigmaPlot 11.0.

mice fed a high-fat diet [2] = assay: High-fat diet-induced obesity: body weight, food intake, body composition, adipocyte volume; format: in vivo; conditions: daily i.p. 5 mg/kg, 12 weeks; for percentage of perigonadal fat mass: NMR, vehicle 8 ± 0.8%; for adipocyte volume: adipocytes from epididymal fat pad, vehicle 510 ± 42 pL
Procedure: as §1, §2
Body composition was measured using nuclear magnetic resonance (NMR) technology at Chengdu College core facility. Epididymal fat pads were excised and adipocytes were isolated. Cells were then fixed using 2% OsO4 in PBS overnight at 37°C [2].

[3] = Pharmacokinetic studies, plasma concentration after i.p. injection; format: in vivo; conditions: mice, i.p. 4 mg/kg; for Cmax: male, C57BL/6, mouse, plasma, ip, read-out: maximum concentration in plasma; for plasma concentrations compared to the parental peptides 1 and 2: at each time point after 1 hour
Procedure: as §1
Peptides (1, 3, 10, 34, 2, 60, 49, and 51) were dissolved in sterile aqueous 5% dextrose and administered to mice by i.p. injection (4 mg/kg). Blood samples were collected from the tail tip at 0, 0.5, 1, 6, 12, 18, 24 and 48 hours. Plasma samples were harvested by centrifugation and stored at -80°C until assayed. Peptide concentrations in plasma were determined by Reversed-Phase High-Performance Liquid Chromatography (RP-HPLC) with electrospray ionization mass spectrometric ([…]) detection. Samples were assayed with a series of 8 calibration standards of peptide in plasma at concentrations ranging from 50 to 6000 μg/L. Peptide concentrations were determined by comparing to the standards.

mice fed a high-fat diet [4] = assay: Indirect energy expenditure and physical activity measurement; format: in vivo; conditions: after 12 weeks daily i.p. 5 mg/kg on high-fat diet; for Oxygen consumption VO2: vehicle 4.15 ± 0.55; for Ambulatory day activity / Ambulatory night activity: photobeam break counts; for Ambulatory day activity: vehicle 2,069 ± 705; for Ambulatory night activity: vehicle 6,289 ± 1,216
Procedure: as §1, §2
After receiving 12 weeks of treatment as described above, rates of oxygen consumption (VO2) was measured using a four-chamber indirect calorimeter (Langguan, China, air flow of 0.5 l/min). A total of 2-hour measurement for each animal was conducted at 15-minuate intervals under room temperature (22°C). Ambulatory activity was estimated by counting the number of photobeam breaks in a three-sensor chamber instrument (Rui Pharm, China), and the cumulative ambulatory activity counts were recorded every hour. A total of 12 h-day time and 12 h-night activity were recorded for each animal.

mice = assay: Acute toxicity in mice; format: in vivo; conditions: up to 15 mg/kg i.p.; for signs of acute toxicity: 72 hours; for death of animals: another 14 days following the initial examination; for H&E staining of livers, spleens and kidneys: end of experiment
Procedure: as §1
The control group (n = 10) received vehicle only. Eight groups (10 mice each) were treated with increasing doses of either peptide 1, 3, 10, 34, 2, 60, 49, and 51 up to 15 mg/kg by i.p. Number of death, sedation, spontaneous motor activity, alertness, ptosis, dyspnea, convulsion, diarrhea, urination, postural reflex, piloerection, nociception, grooming, vocalization, rearing, climbing and aggression were observed every 12 hours for 72 h. Animals were maintained for another 14 days after the initial examination. We planned to sacrifice the animals if they show severe signs of pain or distress, a body weight loss in excess of 15% of its body weight, or a deterioration of the body condition score to BC2(-) or below. However, none of the animals qualified for the mentioned the symptoms. No animals died during the whole study. At the end of the experiment, animals were euthanized by CO2 asphyxiation followed by cervical dislocation, the livers, spleens and kidneys were collected and formalin-fixed paraffin-embedded for H&E staining.

Compound: CC(=O)N1CCC[C@H]1C(=O)N[C@H](C(=O)N[C@@H](CCCCN)C(=O)N1CCC[C@H]1C(=O)N1CCC[C@H]1C(N)=O)c1ccccc1 [Peptide 3, Ac-P(a)KPP-NH2] (Ac-P[Phg]KPP-NH2)
- glucose tolerance compared to the vehicle group (mice fed a high-fat diet [1]): not statistically significant
- Ki (Cbl (RING) protein): > 500 µM
- percentage of perigonadal fat mass (mice fed a high-fat diet [2]): 7.1 ± 0.4%
- adipocyte volume (mice fed a high-fat diet [2]): 505 ± 34 pL
- Cmax ([3]; observed in 60 min): 4020 ng/mL
- plasma concentrations compared to the parental peptides 1 and 2 [3]: greater plasma concentrations
- Oxygen consumption VO2 (mice fed a high-fat diet [4]): 3.78 ± 0.29 mL/g/h
- Ambulatory day activity (mice fed a high-fat diet [4]): 2,158 ± 763 per 12 h
- Ambulatory night activity (mice fed a high-fat diet [4]): 6,058 ± 1,298 per 12 h
- signs of acute toxicity (mice): did not show vital signs of acute toxicity
- death of animals (mice): None of the animals died
- H&E staining of livers, spleens and kidneys (mice): does not show any sign of injuries

Compound: CC(=O)CN(CCCC[C@H](NC(=O)[C@@H](NC(=O)[C@H](C)NC(=O)[C@@H]1CCCN1C(=O)[C@H](CCCCN(O)C(C)=O)NC(C)=O)[C@@H](C)O)C(N)=O)C(C)=O [Peptide 44, Ac-(v)PAT(w)-NH2]
- Ki (Cbl (RING) protein): 126 ± 22.6 µM

Compound: CC(=O)CN(CCCC[C@H](NC(C)=O)C(=O)N1CCC[C@H]1C(=O)N[C@@H](C)C(=O)N[C@H](C(=O)N[C@@H](CCCCN(O)C(C)=O)C(N)=O)[C@@H](C)O)C(C)=O [Peptide 45, Ac-(w)PAT(v)-NH2]
- Ki (Cbl (RING) protein): 196 ± 12.3 µM

Compound: CC(=O)N[C@@H](CCCCN)C(=O)N1CC=C[C@H]1C(=O)N[C@@H](C)C(=O)N[C@H](C(=O)N[C@@H](CCCCN)C(N)=O)[C@@H](C)O [Peptide 47, Ac-K(p)ATK-NH2] (Ac-K[ΔPro]ATK-NH2)
- Ki (Cbl (RING) protein): 44.3 ± 13.2 µM

Compound: CC(=O)N[C@@H](CCCCN)C(=O)N1CC[C@H]1C(=O)N[C@@H](C)C(=O)N[C@H](C(=O)N[C@@H](CCCCN)C(N)=O)[C@@H](C)O [Peptide 48, Ac-K(q)ATK-NH2] (Ac-K[Aze]ATK-NH2)
- Ki (Cbl (RING) protein): 59.6 ± 13.5 µM

Compound: CC(=O)N[C@@H](CCCCN)C(=O)N1CCCC[C@H]1C(=O)N[C@@H](C)C(=O)N[C@H](C(=O)N[C@@H](CCCCN)C(N)=O)[C@@H](C)O [Peptide 50, Ac-K(s)ATK-NH2] (Ac-K[Pip]ATK-NH2)
- Ki (Cbl (RING) protein): 32.6 ± 10.9 µM

Compound: CC(=O)N[C@@H](CCCCN)C(=O)N1CSC[C@H]1C(=O)N[C@H](C(=O)N[C@H](C(=O)N[C@@H](CCCCN)C(N)=O)[C@@H](C)O)C(C)C [Peptide 53, Ac-K(r)VTK-NH2] (Ac-K[Thz]VTK-NH2)
- Ki (Cbl (RING) protein): 91.2 ± 6.6 µM

Compound: CC(=O)N[C@@H](CCCCN)C(=O)N1CSC[C@H]1C(=O)N[C@H](C(=O)N[C@H](C(=O)N[C@@H](CCCCN)C(N)=O)[C@@H](C)O)[C@@H](C)O [Peptide 54, Ac-K(r)TTK-NH2] (Ac-K[Thz]TTK-NH2)
- Ki (Cbl (RING) protein): 201 ± 14.4 µM

Compound: CC[C@H](C)[C@H](NC(=O)[C@@H]1CSCN1C(=O)[C@H](CCCCN)NC(C)=O)C(=O)N[C@H](C(=O)N[C@@H](CCCCN)C(N)=O)[C@@H](C)O [Peptide 55, Ac-K(r)ITK-NH2] (Ac-K[Thz]ITK-NH2)
- Ki (Cbl (RING) protein): 190 ± 19.2 µM

Compound: CC(=O)N[C@@H](CCCCN)C(=O)N1CSC[C@H]1C(=O)N[C@@H](CC(C)C)C(=O)N[C@H](C(=O)N[C@@H](CCCCN)C(N)=O)[C@@H](C)O [Peptide 56, Ac-K(r)LTK-NH2] (Ac-K[Thz]LTK-NH2)
- Ki (Cbl (RING) protein): 226 ± 22.5 µM

Compound: CC(=O)N[C@@H](CCCCN)C(=O)N1C[C@H](F)C[C@H]1C(=O)N[C@@H](C)C(=O)N[C@@H](C)C(=O)N[C@@H](CCCCN)C(N)=O [Peptide 57, Ac-K(t)AAK-NH2] (Ac-K[Pro(trans-4-F)]AAK-NH2)
- Ki (Cbl (RING) protein): 179 ± 10.2 µM

Compound: CC(=O)N[C@@H](CCCCN)C(=O)N1C[C@H](F)C[C@H]1C(=O)N[C@@H](C)C(=O)N[C@H](C(=O)N[C@@H](CCCCN)C(N)=O)C(C)C [Peptide 58, Ac-K(t)AVK-NH2] (Ac-K[Pro(trans-4-F)]AVK-NH2)
- Ki (Cbl (RING) protein): 126 ± 3.2 µM

Compound: CC[C@H](C)[C@H](NC(=O)[C@H](C)NC(=O)[C@@H]1C[C@@H](F)CN1C(=O)[C@H](CCCCN)NC(C)=O)C(=O)N[C@@H](CCCCN)C(N)=O [Peptide 59, Ac-K(t)AIK-NH2] (Ac-K[Pro(trans-4-F)]AIK-NH2)
- Ki (Cbl (RING) protein): 145 ± 18.3 µM

Compound: CC(=O)N[C@@H](CCCCN)C(=O)N1C[C@H](F)C[C@H]1C(=O)N[C@@H](C)C(=O)N[C@@H](CC(C)C)C(=O)N[C@@H](CCCCN)C(N)=O [Peptide 60, Ac-K(t)ALK-NH2] (Ac-K[Pro(trans-4-F)]ALK-NH2)
- Ki (Cbl (RING) protein): 228 ± 20.2 µM
- percentage of perigonadal fat mass (mice fed a high-fat diet [2]): 7.8 ± 0.7%
- adipocyte volume (mice fed a high-fat diet [2]): 520 ± 26 pL
- Cmax ([3]; observed in 60 min): 4280 ng/mL
- plasma concentrations compared to the parental peptides 1 and 2 [3]: greater plasma concentrations
- Oxygen consumption VO2 (mice fed a high-fat diet [4]): 4.16 ± 0.29 mL/g/h
- Ambulatory day activity (mice fed a high-fat diet [4]): 2,025 ± 945 per 12 h
- Ambulatory night activity (mice fed a high-fat diet [4]): 5,993 ± 1,278 per 12 h
- signs of acute toxicity (mice): did not show vital signs of acute toxicity
- death of animals (mice): None of the animals died
- H&E staining of livers, spleens and kidneys (mice): does not show any sign of injuries

Compound: Ac-KPATK-NH2 [Peptide 2, Ac-KPATK-NH2]
- Ki (Cbl (RING) protein): 4.7 ± 1.2 µM
- percentage of perigonadal fat mass (mice fed a high-fat diet [2]): 6.7 ± 0.5%
- adipocyte volume (mice fed a high-fat diet [2]): 440 ± 58 pL
- Cmax ([3]; observed in 30 min): 3370 ng/mL
- Oxygen consumption VO2 (mice fed a high-fat diet [4]): 4.22 ± 0.42 mL/g/h
- Ambulatory day activity (mice fed a high-fat diet [4]): 2,342 ±1,002 per 12 h
- Ambulatory night activity (mice fed a high-fat diet [4]): 6,721 ± 1,032 per 12 h
- signs of acute toxicity (mice): did not show vital signs of acute toxicity
- death of animals (mice): None of the animals died
- H&E staining of livers, spleens and kidneys (mice): does not show any sign of injuries
